Tested on: nAChRs in mouse brain
Assay: regional distribution of [18F]FPH in mouse brain after tail vein injection
Type: in vivo
Method: The utility of [^18 F] FPH as an agent to label, in vivo, nAChRs in mouse brain was tested. Mice received 0.4 μCi of [^18 F]FPH (sp. act >2000 mCi/μmol) by tail vein injection. The regional distribution of the tracer in brain was assessed in the absence and presence of unlabeled epibatidine. […] In in vitro assays, the Ki for unlabeled FPH against nAChRs labeled with [^3 H] epibatidine was approximately 3 pM. […] FPH would be an excellent ligand for imaging nAChRs in living human brain.

[1] = 30 minutes post injection, tail vein, 0.4 μCi

SMILES: [18F]c1ccc(C2CC3CCC2N3)cn1 (racemic) [[^18 F]FPH, (±)-exo-2-(2-[^18 F]fluoro-5-pyridyl)-7-azabicyclo[2.2.1]heptane]
- uptake in cerebellum [1]: < 3 % ID/g
- uptake in cortex [1]: 6.2 % ID/g
- uptake in hippocampus [1]: 6 % ID/g
- uptake in superior colliculus [1]: 10 % ID/g
- uptake in thalamus [1]: 11 % ID/g
- binding in all regions after pretreatment with unlabeled epibatidine (pretreatment with unlabeled epibatidine 20 μg/kg): ~ 3 % ID/g

— patent US5726189A, “Method for imaging nicotinic acetylcholinergic receptors in the brain using radiolabeled pyridyl-7-azabicyclo [2.2.1]heptanes” (priority 1996, dated 1998)
